One assay relates to YAP. The experiment in a line: pharmacological block of YAP protein turnover in RASSF4-deficient aRMS cells. The format is cell-based, human. To be noted: RASSF4-deficient aRMS cells versus control; data not shown. From the text: Finally, we examined whether there was a connection between RASSF4 and YAP. […] Since YAP protein is turned over by sequential phosphorylation and ubiquitin-mediated degradation (Zhao et al., Genes Dev. 24:72-85 (2010)), we attempted to pharmacologically block YAP protein turnover in RASSF4-deficient cells using MG132 or IC 261. […] When examined at the transcriptional level, we observed a decreasing trend in YAP mRNA levels that only reached significance with one RASSF4 shRNA. Since RASSF4 loss of function was causing growth arrest and senescence, we reasoned that these effects on YAP could be caused by the growth arrest itself and RASSF4 loss. […] Instead, cells expressing YAP S127A and RASSF4 shRNA had more pronounced mitotic defects (data not shown). Therefore, while we cannot identify a clear connection between RASSF4 and YAP in aRMS at this time, Hippo signaling is clearly dysregulated at multiple levels in RMS through RASSF4-MST1 and YAP-mediated mechanisms (FIG. 7F).

The subject of a further assay is LATS1. Kind of assay: nocodazole treatment, LATS1 phosphorylation by immunoblot. The format is cell-based, human. To be noted: nocodazole-treated HSMM^PF+H+M cells, control and RASSF4-knockdown. On the technique in general: In western blotting, separated proteins are transferred to a membrane and probed.
The target in another assay is T1, MST1 (Homo sapiens, UniProt Q13043, K59R).
T1 construct: expressed in transfected cells; host or cells: HSMM^PF+H+M cells (human skeletal muscle myoblasts expressing PAX3-FOXO1, hTERT, MycN), with or without RASSF4 shRNA
T1 sequence (Q13043 1-487 K59R): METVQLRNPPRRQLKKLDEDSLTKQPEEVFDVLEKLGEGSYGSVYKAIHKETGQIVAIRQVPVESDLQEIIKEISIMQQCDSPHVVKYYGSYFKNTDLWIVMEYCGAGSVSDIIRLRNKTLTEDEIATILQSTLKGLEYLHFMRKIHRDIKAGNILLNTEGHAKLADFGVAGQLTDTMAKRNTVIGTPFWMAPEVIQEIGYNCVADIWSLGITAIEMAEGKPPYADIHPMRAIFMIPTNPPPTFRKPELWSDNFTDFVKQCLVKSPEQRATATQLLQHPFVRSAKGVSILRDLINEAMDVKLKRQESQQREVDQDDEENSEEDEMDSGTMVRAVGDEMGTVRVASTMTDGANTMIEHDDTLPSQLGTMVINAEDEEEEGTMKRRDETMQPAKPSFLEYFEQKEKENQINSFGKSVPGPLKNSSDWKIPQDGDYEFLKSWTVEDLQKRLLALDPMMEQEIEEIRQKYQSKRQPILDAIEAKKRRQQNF
Kind of assay: staurosporine stimulation, MST1 phosphorylation by immunoblot. The format is cell-based. Particulars: MST1 K59R expressing HSMM^PF+H+M cells, 1 μM STS, 1 hour. As for the experimental part: (A) RASSF4 deficiency causes MST1 phosphorylation and cleavage upon staurosporine (STS) treatment. Cells expressing FLAG-MST1 K59R were treated for 1 hour with 1 μM STS and examined for phosphor-MST1/2 and total MST1 by immunoblot. (B) Upon 1 hour treatment with 1 μM STS, RASSF4-deficient aRMS cells display higher cleaved caspase 3 as measured by immunoblot. In A and B, actin was used as a loading control.
However, even without the ability to activate downstream signaling, MST1 K59R can still be regulated like wild-type MST1 through phosphorylation by upstream kinases and caspase cleavage. Since endogenous phospho-MST1 levels and MST1 cleavage products were in low abundance in aRMS cells and were difficult to detect, we used cells expressing MST1K59R to boost MST1 expression, while maintaining cell viability. We stimulated cells with staurosporine (STS), a well-established activator of MST1, and examined the role of RASSF4 in MST1 phosphorylation and cleavage (Graves et al., J. Biol. Chem 276:14909-14915 (2001)). […] This is the reported size of the MST1 cleavage fragment believed to be regulated by caspases (Graves et al. (2001); Cheung et al., Cell 113:507-517 (2003); Praskova et al., Biochem J. 381:453-462 (2004)). […]

The target in assay [1] is Yki/YAP and transcriptional coactivator TEAD/TEF transcription factors (Homo sapiens, UniProt P46937). Particulars: identified in a screen; cited from earlier work.
Sequence of Yki/YAP and transcriptional coactivator TEAD/TEF transcription factors (P46937 whole entry): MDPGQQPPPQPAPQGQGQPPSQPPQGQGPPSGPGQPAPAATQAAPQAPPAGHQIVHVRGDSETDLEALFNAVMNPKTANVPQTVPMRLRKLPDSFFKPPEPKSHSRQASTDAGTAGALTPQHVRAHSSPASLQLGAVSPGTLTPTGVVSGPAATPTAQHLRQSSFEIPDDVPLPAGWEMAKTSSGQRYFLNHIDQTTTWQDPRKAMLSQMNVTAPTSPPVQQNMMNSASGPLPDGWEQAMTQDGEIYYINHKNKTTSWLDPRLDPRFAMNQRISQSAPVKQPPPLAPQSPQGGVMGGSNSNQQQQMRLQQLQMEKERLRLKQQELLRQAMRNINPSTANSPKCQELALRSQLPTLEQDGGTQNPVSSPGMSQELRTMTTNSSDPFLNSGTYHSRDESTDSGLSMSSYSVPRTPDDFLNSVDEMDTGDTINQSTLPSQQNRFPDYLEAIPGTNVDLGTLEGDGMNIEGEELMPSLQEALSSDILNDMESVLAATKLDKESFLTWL

Residues, ends and D or L forms follow the SMILES beside them. *: point of attachment. Cbz = O=C(OCc1ccccc1)*

This is an account of results in patent publication US20160287575A1, “COMPOSITIONS AND METHODS FOR THE TREATMENT OF DISEASES INVOLVING HIPPO PATHWAY” (DUKE UNIVERSITY, priority 2013, published 2016).

As for `COc1cc(OC)c(C=C2C(O)=Nc3ccccc32)c(OC)c1` [IC 261], the “phospho-YAP and total YAP levels” value in the assay on YAP is given as “still lower”.

On to `CC(C)C[C@@H](C=O)NC(=O)[C@H](CC(C)C)NC(=O)[C@H](CC(C)C)NC(=O)OCc1ccccc1` [MG132] (Cbz-Leu-Leu-Leu-aldehyde), for which, in the assay with YAP, the “phospho-YAP and total YAP levels” value is “still lower”.

For the compound `COC(=O)Nc1nc2ccc(C(=O)c3cccs3)cc2[nH]1` [nocodazole], the “phosphorylated LATS1” value in the assay on LATS1 is listed as “reduction in phosphorylated LATS1”.

With `CN[C@@H]1C[C@H]2O[C@@](C)([C@@H]1OC)n1c3ccccc3c3c4c(c5c6ccccc6n2c5c31)C(=O)NC4` [staurosporine], the “phosphorylation of full-length MST1” value on MST1 is “increased phosphorylation of full-length MST1”.

Take verteporfin: the “disruption of physical interactions between Yki/YAP and TEAD/TEF” value in assay [1] is “capable of disrupting physical interactions”.
